ChEMBL document CHEMBL3808342, “Discovery and optimization of a novel series of highly CNS penetrant M4 PAMs based on a 5,6-dimethyl-4-(piperidin-1-yl)thieno[2,3-d]pyrimidine core” (Bioorg Med Chem Lett, 2016)

Key:
[1] = target: T1, Muscarinic acetylcholine receptor M4 (Homo sapiens) (UniProt P08173); assay: Positive allosteric modulation of human M4 receptor expressed in CHO cells coexpressing Gqi5 by calcium mobilization assay relative to acetylcholine; type: functional, cell-based
T1 sequence (whole entry): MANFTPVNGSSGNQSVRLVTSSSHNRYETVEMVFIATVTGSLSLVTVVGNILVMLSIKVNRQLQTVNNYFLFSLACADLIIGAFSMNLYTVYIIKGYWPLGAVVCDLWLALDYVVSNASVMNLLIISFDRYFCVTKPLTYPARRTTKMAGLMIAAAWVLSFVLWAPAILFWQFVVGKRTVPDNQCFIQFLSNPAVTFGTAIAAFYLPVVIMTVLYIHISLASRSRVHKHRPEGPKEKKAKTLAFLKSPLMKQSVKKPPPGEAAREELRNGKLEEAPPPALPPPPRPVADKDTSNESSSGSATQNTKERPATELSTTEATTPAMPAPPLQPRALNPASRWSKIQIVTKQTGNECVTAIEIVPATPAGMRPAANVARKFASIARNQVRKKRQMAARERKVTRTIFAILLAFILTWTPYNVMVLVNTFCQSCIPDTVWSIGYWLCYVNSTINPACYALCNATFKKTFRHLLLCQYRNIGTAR

[2] = target: T2, Muscarinic acetylcholine receptor M4 (Homo sapiens, UniProt P08173); assay: Positive allosteric modulation of human M4 receptor expressed in CHO cells coexpressing Gqi5 by calcium mobilization assay; type: functional, cell-based; conditions: read-out: EC50
T2 sequence (P08173 whole entry): T1 sequence (whole entry)

[3] = Ratio of brain to plasma partition coefficient in Sprague-Dawley rat at 0.2 to 0.25 mg/kg, iv administered as cassette dose after 0.25 hrs; type: ADME, organism-based; conditions: for Kp: brain, 0.25 h; for Kp at 0.25 h: Sprague-Dawley, brain and plasma
[4] = Ratio of unbound brain-to-plasma concentration in Sprague-Dawley rat at 0.2 to 0.25 mg/kg, iv administered as cassette dose after 0.25 hrs; type: ADME, organism-based
[5] = Drug metabolism in rat hepatic microsomes assessed as hydroxylation of 5,6-dimethyl moiety; type: ADME, Liver, Microsome
[6] = Drug metabolism in human hepatic microsomes assessed as compound oxidation; type: ADME, Liver, Microsome
Plasma = assay: (§1) Fraction unbound in rat plasma; type: ADME, cell-free
[7] = Fraction unbound in human plasma; type: ADME, cell-free
[8] = target: T2, Muscarinic acetylcholine receptor M4; assay: Antagonist activity at human M4 receptor expressed in CHO cells coexpressing Gqi5 by calcium mobilization assay; type: functional, cell-based
[9] = as §1; type: ADME, cell-free
[10] = target: T1, Muscarinic acetylcholine receptor M4 (Homo sapiens); assay: Antagonist activity at human M4 receptor expressed in CHO cells coexpressing Gqi5 assessed as acetylcholine-induced calcium mobilization; type: functional, cell-based; set-up: scale not given: the % may be the effect or the level left
[11] = target: T3, Muscarinic acetylcholine receptor M4 (Rattus norvegicus) (UniProt P08485); assay: Positive allosteric modulation of rat M4 receptor expressed in CHO cells coexpressing Gqi5 by calcium mobilization assay relative to acetylcholine; type: functional, cell-based
T3 sequence (whole entry): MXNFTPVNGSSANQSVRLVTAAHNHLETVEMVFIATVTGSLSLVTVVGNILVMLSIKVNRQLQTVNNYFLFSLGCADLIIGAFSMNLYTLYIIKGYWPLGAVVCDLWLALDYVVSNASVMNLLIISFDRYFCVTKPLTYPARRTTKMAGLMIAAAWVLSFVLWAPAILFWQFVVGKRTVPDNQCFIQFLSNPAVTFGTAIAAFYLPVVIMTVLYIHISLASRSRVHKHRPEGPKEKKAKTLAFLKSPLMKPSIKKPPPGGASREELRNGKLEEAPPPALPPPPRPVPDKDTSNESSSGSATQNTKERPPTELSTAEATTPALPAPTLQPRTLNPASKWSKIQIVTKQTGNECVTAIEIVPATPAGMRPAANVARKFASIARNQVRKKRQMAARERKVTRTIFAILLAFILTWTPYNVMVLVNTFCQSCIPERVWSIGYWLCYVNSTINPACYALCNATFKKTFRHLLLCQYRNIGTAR

[12] = target: T4, Muscarinic acetylcholine receptor M5 (Homo sapiens, UniProt P08912); assay: Positive allosteric modulation of human M5 receptor expressed in CHOK1 cells by calcium mobilization assay; type: functional, cell-based, CHO-K1
T4 sequence (P08912 whole entry): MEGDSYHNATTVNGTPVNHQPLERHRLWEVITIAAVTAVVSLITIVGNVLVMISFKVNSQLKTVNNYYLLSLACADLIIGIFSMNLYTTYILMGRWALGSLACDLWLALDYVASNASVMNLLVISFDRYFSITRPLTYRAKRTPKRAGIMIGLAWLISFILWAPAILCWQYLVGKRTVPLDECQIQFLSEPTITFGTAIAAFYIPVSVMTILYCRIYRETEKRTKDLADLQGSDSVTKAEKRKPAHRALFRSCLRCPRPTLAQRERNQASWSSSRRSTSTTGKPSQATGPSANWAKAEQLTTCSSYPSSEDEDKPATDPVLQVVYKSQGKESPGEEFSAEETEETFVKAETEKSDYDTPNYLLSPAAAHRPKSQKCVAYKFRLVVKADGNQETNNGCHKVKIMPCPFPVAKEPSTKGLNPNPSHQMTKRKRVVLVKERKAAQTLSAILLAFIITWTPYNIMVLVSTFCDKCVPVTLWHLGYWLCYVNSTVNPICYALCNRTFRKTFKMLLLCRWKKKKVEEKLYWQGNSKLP

[13] = target: Muscarinic acetylcholine receptor M3 (Homo sapiens, UniProt P20309); assay: Positive allosteric modulation of human M3
[14] = target: T5, Muscarinic acetylcholine receptor M2 (Homo sapiens, UniProt P08172); assay: Positive allosteric modulation of human M2
T5 sequence (P08172 whole entry): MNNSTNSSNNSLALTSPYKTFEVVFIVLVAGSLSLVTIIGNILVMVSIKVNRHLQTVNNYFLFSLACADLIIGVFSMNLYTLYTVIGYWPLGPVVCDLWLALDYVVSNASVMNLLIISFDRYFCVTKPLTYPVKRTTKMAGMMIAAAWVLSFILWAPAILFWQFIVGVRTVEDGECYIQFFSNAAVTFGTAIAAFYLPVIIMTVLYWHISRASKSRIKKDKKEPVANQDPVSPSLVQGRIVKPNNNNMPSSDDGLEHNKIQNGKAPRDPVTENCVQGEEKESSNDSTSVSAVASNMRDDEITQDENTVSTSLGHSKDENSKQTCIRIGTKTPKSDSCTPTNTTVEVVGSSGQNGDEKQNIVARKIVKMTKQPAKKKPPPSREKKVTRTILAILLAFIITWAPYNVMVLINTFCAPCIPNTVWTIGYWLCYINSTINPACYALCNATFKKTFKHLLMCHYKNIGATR

[15] = target: T6, Muscarinic acetylcholine receptor M1 (Homo sapiens, UniProt P11229); assay: Positive allosteric modulation of human M1 receptor expressed in CHOK1 cells by calcium mobilization assay
T6 sequence (P11229 whole entry): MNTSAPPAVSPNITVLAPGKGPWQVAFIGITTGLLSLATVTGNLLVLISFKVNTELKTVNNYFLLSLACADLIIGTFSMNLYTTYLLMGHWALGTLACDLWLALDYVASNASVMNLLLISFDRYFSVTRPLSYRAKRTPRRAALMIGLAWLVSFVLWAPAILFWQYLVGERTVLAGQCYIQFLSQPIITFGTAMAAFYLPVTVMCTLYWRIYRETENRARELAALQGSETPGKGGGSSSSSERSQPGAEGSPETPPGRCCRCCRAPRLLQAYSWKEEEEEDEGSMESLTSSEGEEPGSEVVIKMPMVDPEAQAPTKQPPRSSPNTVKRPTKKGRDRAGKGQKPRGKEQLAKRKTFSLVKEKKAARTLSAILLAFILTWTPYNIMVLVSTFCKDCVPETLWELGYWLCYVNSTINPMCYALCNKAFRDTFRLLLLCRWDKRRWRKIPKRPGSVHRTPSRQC

[16] = target: T7, Muscarinic acetylcholine receptor M4 (Rattus norvegicus, UniProt P08485); assay: Positive allosteric modulation of rat M4 receptor expressed in CHO cells coexpressing Gqi5 by calcium mobilization assay; type: functional, cell-based
T7 sequence (P08485 whole entry): T3 sequence (whole entry)

Brain = assay: Fraction unbound in rat brain homogenate; type: ADME, tissue-based

Chain of Muscarinic acetylcholine receptor M3 (P20309 whole entry): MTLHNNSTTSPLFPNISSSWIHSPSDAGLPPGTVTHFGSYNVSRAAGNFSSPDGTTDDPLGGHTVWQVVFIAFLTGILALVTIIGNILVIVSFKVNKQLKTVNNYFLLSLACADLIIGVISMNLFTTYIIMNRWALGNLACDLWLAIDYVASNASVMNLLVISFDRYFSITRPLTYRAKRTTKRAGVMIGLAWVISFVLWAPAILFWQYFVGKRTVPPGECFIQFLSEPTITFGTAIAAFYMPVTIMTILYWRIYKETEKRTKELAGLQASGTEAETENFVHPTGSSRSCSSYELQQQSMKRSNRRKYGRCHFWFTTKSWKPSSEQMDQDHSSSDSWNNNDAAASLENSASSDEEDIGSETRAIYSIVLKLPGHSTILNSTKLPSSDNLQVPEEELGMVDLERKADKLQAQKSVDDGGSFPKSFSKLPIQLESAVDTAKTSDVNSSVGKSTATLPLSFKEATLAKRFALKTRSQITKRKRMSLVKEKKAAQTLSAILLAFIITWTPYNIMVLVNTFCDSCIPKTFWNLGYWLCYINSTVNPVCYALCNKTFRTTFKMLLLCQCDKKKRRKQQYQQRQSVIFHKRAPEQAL

Row | Structure (SMILES) | %max [1] [%] | EC50 [2] [µM] | Kp [3] | K(p,uu,brain) [4] | also measured
1 | Cc1ccc(OC2CCN(c3nc(C)nn4ccc(C)c34)CC2)cn1 | 58 | 1.1 | 1.42 | 1.95 | 
2 | Cc1sc2ncnc(N3CCC(C(=O)N4CCCc5cc(S(C)(=O)=O)ccc54)CC3)c2c1C | 69 | 0.96 |  |  | 
3 | Cc1ncc(OC2CCN(c3ncnc4sc(C)c(C)c34)CC2)cn1 | 60 | 4.4 | 1.77 | 0.65 | 
4 | Cc1ccc(OC2CCN(c3ncnc4sc(C)c(C)c34)CC2)cn1 | 65 | 0.6 | 1.16 | 0.74 | Drug metabolism [5]: metabolite_detected; Drug metabolism [6]: metabolite_detected
5 | Cc1sc2ncnc(N3CCC(C(=O)N4CCOCC4)CC3)c2c1C | 65 | 1.7 |  |  | 
6 | Cc1sc2ncnc(N3CCC(C(N)=O)CC3)c2c1C | 25 | > 10 |  |  | 
7 | Cc1sc2ncnc(N3CCC(C(=O)Nc4ccc(S(C)(=O)=O)cc4)CC3)c2c1C | 62 | 0.85 |  |  | 
8 | Cc1sc2ncnc(N3CCC(Oc4ccc5c(c4)CCO5)CC3)c2c1C | 74 | 2.3 | 1.25 | 1.38 | 
9 | Cc1sc2ncnc(N3CCC(C(=O)NCc4ccc(S(N)(=O)=O)cc4)CC3)c2c1C | 67 | 2.3 |  |  | 
10 | Cc1sc2ncnc(N3CCC(C(=O)Nc4cc(Cl)ccc4Cl)CC3)c2c1C | 69 | 3.8 |  |  | 
11 | Cc1sc2ncnc(N3CCC(C(=O)Nc4ccc(C(N)=O)cc4)CC3)c2c1C | 56 | 0.39 |  |  | 
12 | Cc1sc2ncnc(N3CCC(C(=O)N4CC[C@H](F)C4)CC3)c2c1C | 79 | 0.97 | 0.17 | 0.12 | Fu (Plasma): 0.12; Fu [7]: 0.05
13 | Cc1sc2ncnc(N3CCC(C(=O)N4CCCC(F)(F)C4)CC3)c2c1C | 60 | 1.9 |  |  | 
14 | Cc1sc2ncnc(N3CCC(Oc4ccc(Cl)nc4)CC3)c2c1C | 64 | 4.3 | 2.56 | 0.17 | 
15 | Cc1sc2ncnc(N3CCC(C(=O)Nc4ccc(N5CCNC5=O)cc4)CC3)c2c1C | 40 | 6.2 |  |  | 
16 | Cc1sc2ncnc(N3CCC(C(=O)Nc4ccc(F)cc4Cl)CC3)c2c1C | 55 | 1.6 |  |  | 
17 | CNC(=O)c1ccc(NC(=O)C2CCN(c3ncnc4sc(C)c(C)c34)CC2)cc1 | 70 | 0.57 |  |  | 
18 | CCCN(c1ccc(C)nc1)C1CCN(c2ncnc3sc(C)c(C)c23)CC1 |  |  |  |  | IC50 [8]: 2.4 µM; fraction unbound [9]: > 0.1; Activity [10]: 9.3%; Fu [7]: > 0.1; Kp at 0.25 h [3]: 0.2
19 | Cc1sc2ncnc(N3CCC(Oc4ccc(F)nc4)CC3)c2c1C | 68 | 1.8 | 2.8 | 0.34 | 
20 | Cc1ccc(OC2CCN(c3ncnc4ccc(F)cc34)CC2)cn1 | 62 | 0.6 | 11.1 | > 10 | %max [11]: 57%; EC50 [12]: > 10 µM; Fu (Plasma): 0.02; EC50 [13]: > 10 µM; EC50 [14]: > 10 µM; EC50 [15]: > 10 µM; EC50 [16]: 0.95 µM; Fu (Brain): 0.03; Fu [7]: 0.16
21 | Cc1sc2ncnc(N3CCC(C(=O)N4CCCC4)CC3)c2c1C | 68 | 1.1 | 0.45 | 0.45 | Fu (Plasma): 0.04; Fu [7]: 0.06
22 | Cc1ccc2ncnc(N3CCC(Oc4ccc(C)nc4)CC3)c2c1 | 49 | 1.2 | 0.94 | 0.62 | 
23 | CCCCN(c1ccc(C)nc1)C1CCN(c2ncnc3sc(C)c(C)c23)CC1 |  |  |  |  | IC50 [8]: 1.5 µM; fraction unbound [9]: > 0.1; Activity [10]: 8.7%; Fu [7]: > 0.1; Kp at 0.25 h [3]: 0.2
24 | Cc1ccc(OC2CCN(c3cc(C)nc4ccc(F)cc34)CC2)cn1 | 64 | 0.69 | 21.4 | 18.2 | 
25 | Cc1sc2ncnc(N3CCC(C(=O)N4CCSCC4)CC3)c2c1C | 75 | 0.82 |  |  | 
